Measurements from US10392368B2, “Pyrazolo and triazolo bicyclic compounds as JAK kinase inhibitors” (THERAVANCE BIOPHARMA R&D IP, LLC, priority 2017, dated 2019).
Like-named read-outs stand apart in the source and are kept apart here.

How the values were obtained:
JAK1 = molecular target: T1, JAK1 (Homo sapiens, UniProt P23458); test: Biochemical JAK1 kinase assay (LanthaScreen); details: for Ki: read-out: JAK 1 (pKi) (converted)
T1 construct: GST; purchased Life Technologies
Summary of the method: (§1)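 Compounds were preincubated with the GST-tagged kinase and GFP-labelled STAT1 peptide for one hour before ATP initiated a one-hour reaction at ambient temperature. Phosphorylation was quantified by TR-FRET with a Tb-labelled pTyr701 antibody. Ki values were derived from IC50 using Cheng-Prusoff.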

[1] = test system: IL-2 stimulated pSTAT5 in Tall-1 T cells; test: Cellular JAK3 potency assay: inhibition of IL-2 stimulated pSTAT5 in Tall-1 T cells; type: cell-based, human; details: for IC50: Homo sapiens, read-out: Tall-1 (pIC50) (converted)
Summary of the method: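 Tall-1 human T cells (45,000/well) in phenol red-free DMEM with 10% FBS were preincubated with compound 1 h at 37 °C, then stimulated with IL-2 (final 300 ng/ml) for 30 min. Lysate pSTAT5 read by AlphaLisa; IC50 from inhibition curves, reported as pIC50 (mean±SD).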

JAK3 = molecular target: T2, JAK3 (Homo sapiens, UniProt P52333); test: Biochemical JAK3 kinase assay (LanthaScreen); set-up: GST; purchased Life Technologies; details: for Ki: read-out: JAK 3 (pKi) (converted)
T2 sequence (P52333 1-1124): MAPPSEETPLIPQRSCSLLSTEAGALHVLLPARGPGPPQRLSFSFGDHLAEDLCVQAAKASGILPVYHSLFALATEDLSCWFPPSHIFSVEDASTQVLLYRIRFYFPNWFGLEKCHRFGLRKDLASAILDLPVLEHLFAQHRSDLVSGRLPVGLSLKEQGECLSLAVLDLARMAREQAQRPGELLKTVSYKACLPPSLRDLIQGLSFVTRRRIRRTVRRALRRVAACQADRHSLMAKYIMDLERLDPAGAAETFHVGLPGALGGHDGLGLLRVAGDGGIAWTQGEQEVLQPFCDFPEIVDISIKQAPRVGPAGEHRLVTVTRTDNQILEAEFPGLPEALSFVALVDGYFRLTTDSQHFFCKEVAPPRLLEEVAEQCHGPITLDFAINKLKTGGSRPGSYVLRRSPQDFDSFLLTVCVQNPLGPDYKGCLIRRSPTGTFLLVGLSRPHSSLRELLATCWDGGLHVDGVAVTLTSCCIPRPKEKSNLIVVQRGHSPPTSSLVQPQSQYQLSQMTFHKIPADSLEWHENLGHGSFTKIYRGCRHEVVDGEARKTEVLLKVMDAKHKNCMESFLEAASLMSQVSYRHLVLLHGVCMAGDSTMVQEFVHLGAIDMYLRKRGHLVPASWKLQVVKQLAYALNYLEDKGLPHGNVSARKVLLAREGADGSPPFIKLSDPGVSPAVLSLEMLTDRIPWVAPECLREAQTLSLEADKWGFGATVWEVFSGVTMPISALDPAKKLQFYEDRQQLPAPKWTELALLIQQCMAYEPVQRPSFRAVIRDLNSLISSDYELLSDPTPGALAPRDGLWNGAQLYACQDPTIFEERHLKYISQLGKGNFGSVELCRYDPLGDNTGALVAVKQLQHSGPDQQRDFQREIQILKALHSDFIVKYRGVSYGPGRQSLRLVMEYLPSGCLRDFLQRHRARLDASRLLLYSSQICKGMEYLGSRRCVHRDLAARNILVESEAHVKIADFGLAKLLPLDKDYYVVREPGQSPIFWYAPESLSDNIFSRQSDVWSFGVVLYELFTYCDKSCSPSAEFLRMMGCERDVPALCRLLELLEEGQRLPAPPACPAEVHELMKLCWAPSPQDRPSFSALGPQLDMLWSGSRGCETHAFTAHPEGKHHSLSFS
Summary of the method: as §1

JAK2 = molecular target: T3, JAK2 (Homo sapiens, UniProt O60674); test: Biochemical JAK2 kinase assay (LanthaScreen); details: for Ki: read-out: JAK 2 (pKi) (converted)
T3 construct: GST; purchased Life Technologies
T3 sequence (O60674 whole entry): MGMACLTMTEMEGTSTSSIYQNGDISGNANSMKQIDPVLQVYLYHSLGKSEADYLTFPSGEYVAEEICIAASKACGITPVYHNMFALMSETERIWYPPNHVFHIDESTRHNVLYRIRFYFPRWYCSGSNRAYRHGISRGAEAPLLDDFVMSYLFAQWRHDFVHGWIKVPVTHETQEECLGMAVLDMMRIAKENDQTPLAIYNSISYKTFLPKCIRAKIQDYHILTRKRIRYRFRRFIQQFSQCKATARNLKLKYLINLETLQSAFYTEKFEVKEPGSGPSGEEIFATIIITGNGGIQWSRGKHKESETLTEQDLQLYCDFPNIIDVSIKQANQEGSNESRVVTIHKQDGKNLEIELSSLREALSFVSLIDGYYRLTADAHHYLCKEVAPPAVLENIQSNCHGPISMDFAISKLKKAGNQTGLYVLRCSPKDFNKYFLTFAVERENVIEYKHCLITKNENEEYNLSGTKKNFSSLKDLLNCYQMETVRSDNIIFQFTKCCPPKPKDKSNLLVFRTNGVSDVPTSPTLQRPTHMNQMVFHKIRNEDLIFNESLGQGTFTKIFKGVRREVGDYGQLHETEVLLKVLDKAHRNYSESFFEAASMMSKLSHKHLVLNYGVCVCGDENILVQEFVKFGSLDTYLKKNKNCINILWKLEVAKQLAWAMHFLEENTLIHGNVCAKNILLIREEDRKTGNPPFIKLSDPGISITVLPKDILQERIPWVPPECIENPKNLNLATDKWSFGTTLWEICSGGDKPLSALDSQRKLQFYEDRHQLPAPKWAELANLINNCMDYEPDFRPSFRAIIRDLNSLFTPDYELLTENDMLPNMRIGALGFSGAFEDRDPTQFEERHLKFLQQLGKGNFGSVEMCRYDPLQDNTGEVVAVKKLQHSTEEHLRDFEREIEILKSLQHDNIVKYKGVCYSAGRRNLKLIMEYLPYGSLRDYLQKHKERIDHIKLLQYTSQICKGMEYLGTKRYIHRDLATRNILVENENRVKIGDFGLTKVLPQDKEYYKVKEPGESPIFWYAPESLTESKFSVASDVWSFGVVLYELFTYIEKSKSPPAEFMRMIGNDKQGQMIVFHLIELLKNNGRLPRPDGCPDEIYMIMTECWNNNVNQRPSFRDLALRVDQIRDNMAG
Summary of the method: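 GST-tagged recombinant JAK2 pre-incubated 1 h at ambient temperature with compound and GFP-STAT1 peptide in HEPES pH 7.5/MgCl2 buffer, then ATP added for a 1 h reaction with 1% DMSO. TR-FRET read after EDTA and Tb-anti-pSTAT1 (pTyr701) addition; IC50 from 4-parameter fit, converted to pKi by Cheng-Prusoff.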

Tyk2 = molecular target: T4, Tyk2 (Homo sapiens, UniProt P29597); test: Biochemical Tyk2 kinase assay (LanthaScreen); details: for Ki: read-out: Tyk 2 (pKi) (converted)
T4 construct: GST; purchased Life Technologies
T4 sequence (P29597 whole entry): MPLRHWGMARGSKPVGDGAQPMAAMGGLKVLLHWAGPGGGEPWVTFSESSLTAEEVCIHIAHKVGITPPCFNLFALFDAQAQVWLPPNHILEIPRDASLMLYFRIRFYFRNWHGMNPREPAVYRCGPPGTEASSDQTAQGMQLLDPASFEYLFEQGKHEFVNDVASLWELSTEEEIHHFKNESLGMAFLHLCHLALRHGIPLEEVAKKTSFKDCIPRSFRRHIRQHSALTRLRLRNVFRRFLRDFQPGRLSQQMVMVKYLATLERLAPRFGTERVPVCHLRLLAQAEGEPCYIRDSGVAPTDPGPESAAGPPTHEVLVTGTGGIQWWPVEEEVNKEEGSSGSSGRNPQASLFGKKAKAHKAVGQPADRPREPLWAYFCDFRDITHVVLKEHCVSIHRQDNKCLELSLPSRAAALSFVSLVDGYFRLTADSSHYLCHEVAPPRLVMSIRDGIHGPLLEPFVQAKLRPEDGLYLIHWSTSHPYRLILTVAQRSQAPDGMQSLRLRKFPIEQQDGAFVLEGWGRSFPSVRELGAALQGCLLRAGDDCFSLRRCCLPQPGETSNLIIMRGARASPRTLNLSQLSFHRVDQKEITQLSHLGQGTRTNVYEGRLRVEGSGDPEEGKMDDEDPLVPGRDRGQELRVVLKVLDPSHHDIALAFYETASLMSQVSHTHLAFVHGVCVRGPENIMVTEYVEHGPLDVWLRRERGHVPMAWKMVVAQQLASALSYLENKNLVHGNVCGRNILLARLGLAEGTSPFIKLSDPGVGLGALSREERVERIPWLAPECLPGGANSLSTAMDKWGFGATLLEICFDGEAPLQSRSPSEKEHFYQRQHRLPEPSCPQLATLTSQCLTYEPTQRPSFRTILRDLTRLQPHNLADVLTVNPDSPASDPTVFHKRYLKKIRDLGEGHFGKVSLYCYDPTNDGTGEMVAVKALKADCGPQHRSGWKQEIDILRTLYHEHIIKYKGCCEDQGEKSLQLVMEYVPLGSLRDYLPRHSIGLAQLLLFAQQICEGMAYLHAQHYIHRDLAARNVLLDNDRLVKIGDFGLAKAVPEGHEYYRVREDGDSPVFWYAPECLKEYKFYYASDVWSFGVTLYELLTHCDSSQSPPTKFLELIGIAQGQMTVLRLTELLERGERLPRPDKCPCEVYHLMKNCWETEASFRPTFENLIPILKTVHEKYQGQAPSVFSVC
Summary of the method: as §1

[2] = TALL-1, IL-2 stimulated pSTAT5, Tall-1 T cells
[3] = selectivity JAK3 over JAK1, difference of pKi
[4] = IL-2 stimulated pSTAT5, Tall-1 T cells
[5] = TALL-1, IL-2 stimulated pSTAT5 in Tall-1 T cells
[6] = selectivity: difference of pKi JAK3 and pKi JAK1
[7] = IL-2 stimulated pSTAT5 in Tall-1 T cells

T1 sequence (P23458 whole entry): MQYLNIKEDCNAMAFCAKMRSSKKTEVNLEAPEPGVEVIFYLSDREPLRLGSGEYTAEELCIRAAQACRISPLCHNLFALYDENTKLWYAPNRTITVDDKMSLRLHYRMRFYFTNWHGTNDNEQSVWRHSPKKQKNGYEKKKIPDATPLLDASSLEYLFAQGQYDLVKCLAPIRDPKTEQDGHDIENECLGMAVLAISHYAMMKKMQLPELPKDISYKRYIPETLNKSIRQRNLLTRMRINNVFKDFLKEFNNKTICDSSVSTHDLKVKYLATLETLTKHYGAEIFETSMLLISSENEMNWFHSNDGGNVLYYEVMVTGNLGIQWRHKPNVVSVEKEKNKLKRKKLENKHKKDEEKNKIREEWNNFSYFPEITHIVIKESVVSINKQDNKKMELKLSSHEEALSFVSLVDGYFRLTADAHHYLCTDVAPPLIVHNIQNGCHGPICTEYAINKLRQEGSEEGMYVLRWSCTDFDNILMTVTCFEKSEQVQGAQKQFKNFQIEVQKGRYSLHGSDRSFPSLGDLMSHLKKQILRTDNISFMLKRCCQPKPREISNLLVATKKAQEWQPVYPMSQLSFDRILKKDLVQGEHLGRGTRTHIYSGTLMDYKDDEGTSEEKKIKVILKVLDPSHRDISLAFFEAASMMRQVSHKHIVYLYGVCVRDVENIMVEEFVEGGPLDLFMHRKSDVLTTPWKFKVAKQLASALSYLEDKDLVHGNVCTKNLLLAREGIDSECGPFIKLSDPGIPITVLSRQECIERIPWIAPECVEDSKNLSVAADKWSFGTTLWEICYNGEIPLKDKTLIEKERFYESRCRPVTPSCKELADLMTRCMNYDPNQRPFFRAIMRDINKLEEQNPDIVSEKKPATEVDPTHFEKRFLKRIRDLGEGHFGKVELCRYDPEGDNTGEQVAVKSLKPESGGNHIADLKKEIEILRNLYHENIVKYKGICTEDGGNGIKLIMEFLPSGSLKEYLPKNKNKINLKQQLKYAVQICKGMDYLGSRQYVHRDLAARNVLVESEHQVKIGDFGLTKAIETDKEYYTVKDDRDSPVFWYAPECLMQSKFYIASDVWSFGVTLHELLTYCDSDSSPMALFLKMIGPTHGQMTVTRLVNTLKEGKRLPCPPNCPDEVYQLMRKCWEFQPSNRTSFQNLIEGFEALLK

Row | SMILES | Ki (JAK1) [nM] | IC50 [1, 2] [nM] | Ki (JAK3) [nM] | JAK3 (pKi)-JAK1 (pKi) (JAK3; [3]) | Ki (JAK2) [nM] | Ki (Tyk2) [nM] | JAK 1 (pKi) (JAK1) | Tall-1 (pIC50) [1, 4] | JAK 3 (pKi) (JAK3) | JAK 2 (pKi) (JAK2) | Tyk 2 (pKi) (Tyk2) | IC50 [1, 5] [nM] | JAK3 (pKi)-JAK1 (pKi) (JAK3; [6]) | Tall-1 (pIC50) [1, 7]
1 | C=CC(=O)N1CCSCC1C(=O)Nc1cc(-c2ccc(O)cc2)cc2[nH]ncc12 (stereo not drawn) [Compound 12-66] | > 100 | 31.6 to 200 | 0.1 to 1 | A (a value of 3 or above) | > 100 | > 100 |  |  |  |  |  |  |  | 
2 | C=CC(=O)N1CC(C)(Oc2cc(-c3ccc(O)c(Cl)c3)cc3[nH]ncc23)C1 [Compound 5-23] |  |  |  | A (a value of 3 or above) |  |  | E (a pKi value of 7 or below (Ki of 100 nM or above)) | B (a pIC50 value between 6.7 (included) and 7.5 (IC50 between 200 nM and 32 nM)) | B (a pKi value between 9 and 10 (Ki between 1 nM and 0.1 nM)) | E (a pKi value of 7 or below (Ki of 100 nM or above)) | E (a pKi value of 7 or below (Ki of 100 nM or above)) |  |  | 
3 | C=CC(=O)N1CC[C@H](Oc2cc(-c3c(F)cc(O)cc3F)cc3[nH]ncc23)C1 [Compound 1-18] | 10 to 100 |  | 0.1 to 1 |  | 10 to 100 | > 100 |  |  |  |  |  | < 31.6 | B (a value of 2.3 to 3) | 
4 | C=CC(=O)N1CC[C@H](Oc2cc(-c3ccc(O)c(F)c3Cl)cc3[nH]ncc23)C1 [Compound 1-15] | > 100 |  | < 0.1 |  | > 100 | > 100 |  |  |  |  |  | 31.6 to 200 | A (a value of 3 or above) | 
5 | C=CC(=O)N1CC(CC)(COc2nc(-c3ccc(O)c(Cl)c3)cc3[nH]ncc23)C1 [Compound 3-66] |  |  |  |  |  |  | E (a pKi value of 7 or below (Ki of 100 nM or above)) |  | B (a pKi value between 9 and 10 (Ki between 1 nM and 0.1 nM)) | E (a pKi value of 7 or below (Ki of 100 nM or above)) | E (a pKi value of 7 or below (Ki of 100 nM or above)) |  | A (a value of 3 or above) | A (a pIC50 value≥7.5 (IC50≤32 nM))
6 | C=CC(=O)N1CC(COc2cc(-c3ccc(O)cc3)nc3[nH]ncc23)C1 [Compound 10, 1-(3-(((6-(4-hydroxyphenyl)-1H-pyrazolo[3,4-b]pyridin-4-yl)oxy)methyl)azetidin-1-yl)prop-2-en-1-one] | > 100 |  | < 0.1 |  | > 100 | > 100 |  |  |  |  |  | 31.6 to 200 | A (a value of 3 or above) | 
7 | C=CC(=O)N1CCC(Oc2nc(-c3ccc(O)cc3)cc3[nH]ncc23)CC1 [Compound 6-15] | > 100 | 31.6 to 200 | 0.1 to 1 | A (a value of 3 or above) | 10 to 100 | > 100 |  |  |  |  |  |  |  | 
8 | CN(C)C/C=C/C(=O)N1CC(F)(COc2cc(-c3ccc(O)c(Cl)c3)nc3[nH]ncc23)C1 [Compound 3-52] |  |  |  |  |  |  | E (a pKi value of 7 or below (Ki of 100 nM or above)) |  | B (a pKi value between 9 and 10 (Ki between 1 nM and 0.1 nM)) | E (a pKi value of 7 or below (Ki of 100 nM or above)) | E (a pKi value of 7 or below (Ki of 100 nM or above)) |  | A (a value of 3 or above) | B (a pIC50 value between 6.7 (included) and 7.5 (IC50 between 200 nM and 32 nM))
9 | COC1CCCN(C/C=C/C(=O)N2CC(COc3cc(-c4ccc(O)cc4)cc4[nH]ncc34)C2)C1 (stereo not drawn) [Compound 3-128] | > 100 |  | < 0.1 |  | 0.1 to 1 | > 100 |  |  |  |  |  | 31.6 to 200 | A (a value of 3 or above) | 
10 | C=CC(=O)N1CCCC(Oc2cc(-c3ccc(O)c(Cl)c3)cc3[nH]ncc23)C1 (stereo not drawn) [Compound 8-3] |  |  |  | A (a value of 3 or above) |  |  | E (a pKi value of 7 or below (Ki of 100 nM or above)) | A (a pIC50 value≥7.5 (IC50≤32 nM)) | B (a pKi value between 9 and 10 (Ki between 1 nM and 0.1 nM)) | D (a pKi value between 7 and 8 (Ki between 100 nM and 10 nM)) | E (a pKi value of 7 or below (Ki of 100 nM or above)) |  |  | 
11 | C=CC(=O)N1CC(COc2nc(-c3ccc(O)c(Cl)c3)nc3[nH]ncc23)C1 [Compound 3-38] | > 100 |  | < 0.1 |  | > 100 | > 100 |  |  |  |  |  | 31.6 to 200 | A (a value of 3 or above) | 
12 | C=CC(=O)N1CC(F)(COc2cc(-c3ccc(O)c(F)c3)nc3[nH]ncc23)C1 [Compound 3-54] |  |  |  |  |  |  | E (a pKi value of 7 or below (Ki of 100 nM or above)) |  | B (a pKi value between 9 and 10 (Ki between 1 nM and 0.1 nM)) | E (a pKi value of 7 or below (Ki of 100 nM or above)) | E (a pKi value of 7 or below (Ki of 100 nM or above)) |  | A (a value of 3 or above) | A (a pIC50 value≥7.5 (IC50≤32 nM))
13 | C=CC(=O)N1CC(C)(COc2cc(-c3ccc(O)c(F)c3)nc3[nH]ncc23)C1 [Compound 3-98] | > 100 |  | < 0.1 |  | > 100 | > 100 |  |  |  |  |  | 31.6 to 200 | A (a value of 3 or above) | 
14 | C=CC(=O)N1CC(CC)(COc2cc(-c3ccc(O)c(F)c3)nc3[nH]ncc23)C1 [Compound 3-70] |  |  |  |  |  |  | E (a pKi value of 7 or below (Ki of 100 nM or above)) |  | A (a pKi value≥10 (Ki≤0.1 nM)) | E (a pKi value of 7 or below (Ki of 100 nM or above)) | E (a pKi value of 7 or below (Ki of 100 nM or above)) |  | A (a value of 3 or above) | B (a pIC50 value between 6.7 (included) and 7.5 (IC50 between 200 nM and 32 nM))
15 | C=CC(=O)N1CC2(CC(Oc3nc(-c4ccc(O)c(Cl)c4)nc4[nH]ncc34)C2)C1 [Compound 15-9] |  |  |  | A (a value of 3 or above) |  |  | E (a pKi value of 7 or below (Ki of 100 nM or above)) | B (a pIC50 value between 6.7 (included) and 7.5 (IC50 between 200 nM and 32 nM)) | A (a pKi value≥10 (Ki≤0.1 nM)) | E (a pKi value of 7 or below (Ki of 100 nM or above)) | E (a pKi value of 7 or below (Ki of 100 nM or above)) |  |  | 
16 | C=CC(=O)N1CCC(C)(Nc2cc(-c3ccc(O)cc3)cc3[nH]ncc23)CC1 [Compound 7-2] |  |  |  | A (a value of 3 or above) |  |  | E (a pKi value of 7 or below (Ki of 100 nM or above)) | A (a pIC50 value≥7.5 (IC50≤32 nM)) | B (a pKi value between 9 and 10 (Ki between 1 nM and 0.1 nM)) | D (a pKi value between 7 and 8 (Ki between 100 nM and 10 nM)) | E (a pKi value of 7 or below (Ki of 100 nM or above)) |  |  | 
